Target: T1, Recombinant HCV polymerase (Hepatitis C virus genotype 1b, UniProt P26663)
T1 construct: 2.5 pmoles (0.15 μg) HCV polymerase protein
Assay: HCV Polymerase Inhibition Assay
Format: biochemical
Conditions: primer/template-directed transcription, 30 minutes at 30° C.; category symbol
Procedure: The above-described compounds were tested for activity with HCV polymerase. Recombinant HCV polymerase was tested for its ability to perform primer/template-directed transcription in assays that contained 30 mM tris-HCl pH 7.2, 10 mM MgCl2, 20 mM NaCl, 1 mM Dithiothreitol (DTT), 0.05% Tween-20, 1% glycerol, 5 pmoles biotin-dG12 (primer), 0.5 pmoles poly(rC)300 (template), 1 μM GTP, 0.1–0.3 uCi α-^32P-GTP, and 2.5 pmoles (0.15 μg) HCV polymerase protein in a final volume of 75 μL. Reactions were initiated by addition of enzyme and incubated 30 minutes at 30° C. Reactions were stopped by addition of 33 mM EDTA, and polynucleotide products were collected by filtration through Diethylaminoethyl (DE) Filtermat papers (Wallac). Unincorporated triphosphate was removed by washing the filters with 5% dibasic sodium phosphate. The filters were counted in a Packard Tri-Lux Microbeta scintillation counter (Packard Bioscience, Meriden, Conn.). Compounds to be tested were added at various concentrations, e.g., 1 μm to 50 μm, from stocks in 10% DMSO-water (final DMSO is 1% in reaction).
IC50 values were estimated from the primary cpm data (collected in triplicate) using the formula: cpm (I)=cpm (no inhibitor)(1−([I]/([I]+IC50))). An IC50 value represents the concentration (in μM) of a compound that provides 50% inhibition of polymerase-directed transcription in the above assay. A percent inhibition value is expressed for a compound where it was impractical to calculate an IC50 value with available data. If the IC50 estimated by the above equation was less than 200 nM, it was recalculated using the following equation, which takes into account the enzyme concentration (30 nM) in the assay: cpm(I)=cpm(no inhibitor)(1−((((I+IC50+30e−9)−sqrt(((I+IC50+30e−9)^2)−4×30e−9×I)))/((2) (30e−9))). Curve fitting was performed using the program KaleidaGraph (Synergy Software, Reading, Pa.).

T1 sequence (P26663 2420-3010): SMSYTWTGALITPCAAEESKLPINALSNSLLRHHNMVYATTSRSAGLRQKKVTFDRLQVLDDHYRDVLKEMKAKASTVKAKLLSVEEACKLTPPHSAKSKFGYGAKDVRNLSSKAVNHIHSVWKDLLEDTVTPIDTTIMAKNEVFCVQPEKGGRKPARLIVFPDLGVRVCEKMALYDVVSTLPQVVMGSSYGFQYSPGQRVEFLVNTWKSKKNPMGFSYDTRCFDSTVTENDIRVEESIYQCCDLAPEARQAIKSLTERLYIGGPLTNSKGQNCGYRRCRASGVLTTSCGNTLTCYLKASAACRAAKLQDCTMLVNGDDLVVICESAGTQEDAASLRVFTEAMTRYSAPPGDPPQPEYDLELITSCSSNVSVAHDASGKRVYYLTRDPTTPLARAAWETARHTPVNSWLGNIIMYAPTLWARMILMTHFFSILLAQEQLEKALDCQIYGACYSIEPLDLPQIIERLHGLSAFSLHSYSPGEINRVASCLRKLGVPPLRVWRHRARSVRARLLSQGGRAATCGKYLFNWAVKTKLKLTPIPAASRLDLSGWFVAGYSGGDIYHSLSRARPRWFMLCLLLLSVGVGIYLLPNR

Structure (SMILES) | IC50 [µM]
O=C1CC(=O)OC(CCc2ccc(F)c(Cl)c2)(C2CCCC2)C1 (stereo not drawn) [Example 31, 6-[2-(3-Chloro-4-fluoro-phenyl)-ethyl]-6-cyclopentyl-dihydro-pyran-2,4-dione] | 1 to 10
O=C1CC(=O)OC(CCc2ccc3c(c2)OCCO3)(C2CCCC2)C1 (stereo not drawn) [Example 32, 6-Cyclopentyl-6-[2-(2,3-dihydro-benzo[1,4]dioxin-6-yl)-ethyl]-dihydro-pyran-2,4-dione] | 1 to 10
CC(C)Oc1cccc(CCC2(C3CCCC3)CC(=O)CC(=O)O2)c1 (stereo not drawn) [Example 33, 6-Cyclopentyl-6-[2-(3-isopropoxy-phenyl)-ethyl]-dihydro-pyran-2,4-dione] | 1 to 10
COC1=CC(=O)OC(CCc2cccc(C(C)C)c2)(C2CCCC2)C1 (stereo not drawn) [Example 34, 6-Cyclopentyl-6-[2-(3-isopropyl)-ethyl]-4-methyoxy-5,6-dihydro-pyran-2-one] | 10 to 50
Cc1cccc(CCC2(C3CCCC3)CC(=O)CC(=O)O2)c1 (stereo not drawn) [Example 36, 6-Cyclopentyl-6-(2-m-tolyl-ethyl)-dihydro-pyran-2,4-dione] | 10 to 50
Cn1cccc(CCC2(C3CCCC3)CC(=O)CC(=O)O2)c1=O (stereo not drawn) [Example 37, 6-Cyclopentyl-6-[2-(1-methyl-2-oxo-1,2-dihydro-pyridin-3-yl)-ethyl]-dihydro-pyran-2,4-dione] | > 50
COc1ccc(CCC2(C3CCCC3)CC(=O)CC(=O)O2)c(OC)c1 (stereo not drawn) [Example 38, 6-Cyclopentyl-6-[2-(2,4-dimethoxy-phenyl)-ethyl]-dihydro-pyran-2,4-dione] | 10 to 50
COc1cc(OC)c(CCC2(C3CCCC3)CC(=O)CC(=O)O2)cc1Cl (stereo not drawn) [Example 39, 6-[2-(5-chloro-2,4-dimethoxyphenyl)ethyl]-6-cyclopentyldihydro-2H-pyran-2,4(3H)-dione] | < 1
CC(C)c1ccc(CCC2(C3CCCC3)CC(=O)CC(=O)O2)cc1 (stereo not drawn) [Example 40, 6-Cyclopentyl-6-[2-(4-isopropyl-phenyl)-ethyl]-dihydro-pyran-2,4-dione] | 1 to 10
CC(C)Oc1ccc(CCC2(C3CCCC3)CC(=O)CC(=O)O2)cc1 (stereo not drawn) [Example 41, 6-Cyclopentyl-6-[2-(4-isopropoxy-phenyl)-ethyl]-dihydro-pyran-2,4-dione] | 1 to 10
CCOc1c(F)cc(CCC2(C3CCCC3)CC(=O)CC(=O)O2)cc1F (stereo not drawn) [Example 42] | 1 to 10
COc1c(F)cc(CCC2(C3CCCC3)CC(=O)CC(=O)O2)cc1F (stereo not drawn) [Example 43, 6-Cyclopentyl-6-[2-(3,5-difluoro-4-methoxy-phenyl)-ethyl]-dihydro-pyran-2,4-dione] | 1 to 10
CCOc1ccc(CCC2(C3CCCC3)CC(=O)CC(=O)O2)cc1Cl (stereo not drawn) [Example 44] | < 1
COc1ccc(Oc2cccc(CCC3(C4CCCC4)CC(O)=CC(=O)O3)c2)cc1 (stereo not drawn) [Example 45, 6-cyclopentyl-6-{2-[3-(4-methoxyphenoxy)phenyl]ethyl}-4-hydroxy-5,6-dihydro-2H-pyran-2-one] | 10 to 50
O=C1C=C(O)CC(CCc2cc3ccccc3o2)(C2CCCC2)O1 (stereo not drawn) [Example 46, 6-[2-(1-benzofuran-2-yl)ethyl]-6-cyclopentyl-4-hydroxy-5,6-dihydro-2H-pyran-2-one] | 10 to 50
O=C1C=C(O)CC(CCc2ccc(Oc3ccccc3)cc2)(C2CCCC2)O1 (stereo not drawn) [Example 47, 6-cyclopentyl-6-[2-(4-phenoxyphenyl)ethyl]-4-hydroxy-5,6-dihydro-2H-pyran-2-one] | 10 to 50
Cc1noc(COc2ccc(CCC3(C4CCCC4)CC(O)=CC(=O)O3)cc2)n1 (stereo not drawn) [Example 48, 6-Cyclopentyl-6-(2-{4-[(3-methyl-1,2,4-oxadiazol-5-yl)methoxy]phenyl}ethyl)4-hydroxy-5,6-dihydro-2H-pyran-2-one] | 10 to 50
Cc1noc(C)c1COc1ccc(CCC2(C3CCCC3)CC(O)=CC(=O)O2)cc1 (stereo not drawn) [Example 49, 6-Cyclopentyl-6-(2-{4-[(3,5-dimethylisoxazol-4-yl)methoxy]phenyl}ethyl)-4-hydroxy-5,6-dihydro-2H-pyran-2-one] | 10 to 50
Cn1c(COc2ccc(CCC3(C4CCCC4)CC(O)=CC(=O)O3)cc2)nc2ccccc21 (stereo not drawn) [Example 50, 6-Cyclopentyl-6-(2-{4-[(1-methyl-1H-benzimidazol-2-yl)methoxy]phenyl}ethyl)-4-hydroxy-5,6-dihydro-2H-pyran-2-one] | 10 to 50
O=C1C=C(O)CC(CCc2ccc(OCc3ccc(Cl)c(Cl)c3)cc2)(C2CCCC2)O1 (stereo not drawn) [Example 51, 6-Cyclopentyl-6-(2-{4-[(3,4-dichlorobenzyl)oxy]phenyl}ethyl)-4-hydroxy-5,6-dihydro-2H-pyran-2-one] | 10 to 50

Structure (SMILES) | IC50 [µM]
O=C1C=C(O)CC(CCc2ccc(OCc3ccc(C(F)(F)F)nc3)cc2)(C2CCCC2)O1 (stereo not drawn) [Example 52, 6-Cyclopentyl-6-[2-(4-{[6-(trifluoromethyl)pyridin-3-yl]methoxy}phenyl)ethyl]4-hydroxy-5,6-dihydro-2H-pyran-2-one] | 10 to 50
O=C1CC(=O)OC(CCc2ccc(Cl)c(Cl)c2)(C2CCCC2)C1 (stereo not drawn) [Example 53, 6-Cyclopentyl-6-[2-(3,4-dichloro-phenyl)-ethyl]-dihydro-pyran-2,4-dione] | 1 to 10
O=C1CC(=O)OC(CCc2ccc(F)c(F)c2)(C2CCCC2)C1 (stereo not drawn) [Example 54, 6-Cyclopentyl-6-[2-(3,4-difluoro-phenyl)-ethyl]-dihydro-pyran-2,4-dione] | 10 to 50
CCCc1ccc(CCC2(C3CCCC3)CC(=O)CC(=O)O2)cc1 (stereo not drawn) [Example 55] | 1 to 10
O=C1CC(=O)OC(CCc2ccc(OC3CCC3)c(F)c2)(C2CCCC2)C1 (stereo not drawn) [Example 56, 6-[2-(4-Cyclobutoxy-3-fluoro-phenyl)-ethyl]-6-cyclopentyl-dihydro-pyran-2,4-dione] | 1 to 10
O=C1CC(=O)OC(CCc2ccc(OCC3CC3)c(F)c2)(C2CCCC2)C1 (stereo not drawn) [Example 57, 6-Cyclopentyl-6-[2-(4-cyclopropylmethoxy-3-fluoro-phenyl)-ethyl]-dihydro-pyran-2,4-dione] | 1 to 10
COc1ccc(OCC2(C3CCCC3)CC(=O)CC(=O)O2)cc1 (stereo not drawn) [Example 58, 6-Cyclopentyl-6-(4-methoxy-phenoxymethyl)-dihydro-pyran-2,4-dione] | > 50
CC(=O)c1ccc(CCC2(C3CCCC3)CC(=O)CC(=O)O2)cc1F (stereo not drawn) [Example 59, 6-[2-(4-Acetyl-3-fluoro-phenyl)-ethyl]-6-cyclopentyl-dihydro-pyran-2,4-dione] | 1 to 10
CC1(c2ccc(CCC3(C4CCCC4)CC(=O)CC(=O)O3)cc2F)OCCO1 (stereo not drawn) [Example 60, 6-Cyclopentyl-6-{2-[3-fluoro-4-(2-methyl-[1,3]dioxolan-2-yl)-phenyl]-ethyl}-dihydro-pyran-2,4-dione] | 1 to 10
CC(=O)c1ccc(CCC2(C3CCCC3)CC(=O)CC(=O)O2)cc1Cl (stereo not drawn) [Example 61, 6-[2-(4-Acetyl-3-chloro-phenyl)-ethyl]-6-cyclopentyl-dihydro-pyran-2,4-dione] | 1 to 10
CC1(c2ccc(CCC3(C4CCCC4)CC(=O)CC(=O)O3)cc2Cl)OCCO1 (stereo not drawn) [Example 62, 6-{2-[3-Chloro-4-(2-methyl-[1,3]dioxolan-2-yl)-phenyl]-ethyl}-6-cyclopentyl-dihydro-pyran-2,4-dione] | < 1
CC(=O)c1ccc(CCC2(C3CCCC3)CC(=O)CC(=O)O2)cc1 (stereo not drawn) [Example 63, 6-[2-(4-Acetyl-phenyl)-ethyl]-6-cyclopentyl-dihydro-pyran-2,4-dione] | 1 to 10
CC(=O)c1cccc(CCC2(C3CCCC3)CC(=O)CC(=O)O2)c1 (stereo not drawn) [Example 64, 6-[2-(3-Acetyl-phenyl)-ethyl]-6-cyclopentyl-dihydro-pyran-2,4-dione] | 1 to 10
COC(=O)c1ccc(CCC2(C3CCCC3)CC(=O)CC(=O)O2)cc1 (stereo not drawn) [Example 65, 4-[2-(2-Cyclopentyl-4,6-dioxo-tetrahydro-pyran-2-yl)-ethyl]-benzoic acid methyl ester] | 1 to 10
CC1(c2ccc(CCC3(C4CCCC4)CC(=O)CC(=O)O3)cc2)CC(=O)CC(=O)O1 (stereo not drawn) [Example 66] | < 1
O=C1CC(=O)OC(CCc2ccc(C(=O)N3CCC(O)CC3)cc2)(C2CCCC2)C1 (stereo not drawn) [Example 67, 6-Cyclopentyl-6-(2-[4-(4-hydroxy-piperidine-1-carbonyl)-phenyl]-ethyl}-dihydro-pyran-2,4-dione] | > 50
O=C1CC(=O)OC(CCc2ccc(C(=O)N3CCOCC3)cc2)(C2CCCC2)C1 (stereo not drawn) [Example 68, 6-Cyclopentyl-6-{2-[4-(morpholine-4-carbonyl)-phenyl]-ethyl}-dihydro-pyran-2,4-dione] | > 50
CC(C)COc1ccc(CCC2(C3CCCC3)CC(=O)CC(=O)O2)cc1F (stereo not drawn) [Example 70, 6-Cyclopentyl-6-[2-(3-fluoro-4-isobutoxy-phenyl)-ethyl]-dihydro-pyran-2,4-dione] | 1 to 10
CCOc1ccc(CCC2(C3CCCC3)CC(=O)CC(=O)O2)cc1F (stereo not drawn) [Example 71, 6-Cyclopentyl-6-[2-(4-ethoxy-3-fluoro-phenyl)-ethyl]-dihydro-pyran-2,4-dione] | < 1
